# From patent US20230139171A1 (SITA Information Networking Computing UK Limited, priority 2019, published 2023)
# How the values were obtained:
# TLR7 = test: In vivo mouse TLR7 PD model (gardiquimod challenge, plasma IL-6 and IFN-alpha by ELISA); set-up: species or system C57BL/6 mice; conditions: oral
# Description: In Vivo Mouse TLR7 PD Model:
# Adult male C57BL/6 mice were used for the experiments. Mice (7 to 10 per group) were randomized into different treatment groups based on body weight. Mice from the respective treatment groups were administered orally with vehicle or test compound. Thirty min after the oral administration of vehicle or test compound, mice were challenged with intraperitoneal injection of gardiquimod for TLR7 PD model. Ninety minutes after gardiquimod injection, mice were bled under isoflurane anaesthesia and plasma IL-6 and IFN-alpha levels were estimated by using commercially available ELISA kit (BD Biosciences, PBL Life Sciences). At the end of experiment, mean cytokine data was plotted and one way ANOVA with Dunnett's test was performed to calculate the significance of test compound treated group vs. vehicle control group. Percent inhibition of cytokine induction was calculated for test compound treated group vs vehicle control group.
# human TLR7 = target: T1, human TLR7 (Homo sapiens, UniProt Q9NYK1); test: TLR7 inhibition reporter assay (HEK-Blue cells, SEAP reporter, gardiquimod stimulation); type: cell-based; conditions: HEK-Blue cells overexpressing human TLR7, SEAP reporter, gardiquimod 7.5 μM; read-out: TLR7 IC50
# T1 construct: host or cells: HEK-Blue cells
# T1 sequence (Q9NYK1 27-1049): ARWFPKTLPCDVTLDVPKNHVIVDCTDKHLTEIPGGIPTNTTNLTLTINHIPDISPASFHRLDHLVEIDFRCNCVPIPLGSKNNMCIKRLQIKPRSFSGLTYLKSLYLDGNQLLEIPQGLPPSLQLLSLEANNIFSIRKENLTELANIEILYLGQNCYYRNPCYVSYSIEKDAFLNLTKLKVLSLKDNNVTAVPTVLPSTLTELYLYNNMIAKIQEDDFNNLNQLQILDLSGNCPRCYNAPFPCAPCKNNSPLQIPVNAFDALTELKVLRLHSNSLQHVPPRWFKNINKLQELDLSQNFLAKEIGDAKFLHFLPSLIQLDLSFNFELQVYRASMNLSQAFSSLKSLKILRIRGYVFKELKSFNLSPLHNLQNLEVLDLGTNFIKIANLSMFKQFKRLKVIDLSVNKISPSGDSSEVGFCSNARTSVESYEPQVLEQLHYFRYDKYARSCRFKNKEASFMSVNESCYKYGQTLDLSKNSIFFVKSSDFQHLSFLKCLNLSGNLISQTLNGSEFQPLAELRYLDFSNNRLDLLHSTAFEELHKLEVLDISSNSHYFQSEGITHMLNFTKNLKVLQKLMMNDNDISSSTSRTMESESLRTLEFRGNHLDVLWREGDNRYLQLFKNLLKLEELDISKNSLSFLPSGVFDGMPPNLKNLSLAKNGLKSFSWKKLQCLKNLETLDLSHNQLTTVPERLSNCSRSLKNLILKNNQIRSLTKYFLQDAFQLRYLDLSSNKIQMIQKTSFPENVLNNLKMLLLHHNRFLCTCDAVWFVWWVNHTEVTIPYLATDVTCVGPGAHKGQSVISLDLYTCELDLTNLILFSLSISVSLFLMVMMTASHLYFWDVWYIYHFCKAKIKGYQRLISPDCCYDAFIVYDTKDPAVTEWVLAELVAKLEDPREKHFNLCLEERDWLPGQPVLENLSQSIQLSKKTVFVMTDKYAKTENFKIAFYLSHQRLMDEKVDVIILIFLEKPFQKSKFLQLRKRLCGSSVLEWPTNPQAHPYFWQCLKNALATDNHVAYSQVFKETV
# How it was run: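 Screening used HEK-Blue cells overexpressing one human TLR (7, 8 or 9) and an IFN-β minimal promoter–NF-κB/AP-1 SEAP construct. Stimulation lasted 22 h at 37 °C with receptor-specific agonist: gardiquimod, R848 or ODN2006 at 7.5 μM, 15.9 μM and 5 nM.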
smiles,measurement,setting,value
"COc1cc(-c2[nH]c3sc(C4CCC(NC5COC5)CC4)nc3c2C(C)C)cn2ncnc12 (single isomer, unassigned) [Example 65, N-(4-(6-isopropyl-5-(8-methoxy-[1,2,4]triazolo[1,5-a]pyridin-6-yl)-4H-pyrrolo[3,2-d]thiazol-2-yl)cyclohexyl)oxetan-3-amine]",% inhibition of IFN-alpha,TLR7; dose 0.001 mg/kg,50%
same,% inhibition of IL6,TLR7; dose 0.001 mg/kg,21%
same,% inhibition of IFN-alpha,TLR7; dose 0.005 mg/kg,63%
same,% inhibition of IL6,TLR7; dose 0.005 mg/kg,42%
same,% inhibition of IFN-alpha,TLR7; dose 0.025 mg/kg,97%
same,% inhibition of IL6,TLR7; dose 0.025 mg/kg,78%
same,% inhibition of IFN-alpha,TLR7; dose 0.050 mg/kg,99%
same,% inhibition of IL6,TLR7; dose 0.050 mg/kg,94%
same,IC50,human TLR7,0.55 nM
